Source: publication PMC9181938, “Fluorinated Analogues of Lepidilines A and C: Synthesis and Screening of Their Anticancer and Antiviral Activity” (Molecules, 2022)

Legend:
[1] = Cytotoxicity screening at 10 µM (MTT); type: cell-based, Mus musculus; conditions: Mus musculus, NCTC clone 929 cells, read-out: Cell line (viability %) NCTC clone 929
[2] = Cytotoxicity MTT assay (0.1–1000 µM), CC50; type: cell-based, Mus musculus; conditions: Mus musculus, NCTC clone 929 cells, Table S2, range 0.1-1000 µM, NCTC clone 929; read-out: Cell line (CC50 M) NCTC clone 929
[3] = test system: Human adenovirus 5 (AdV5); test: Antiviral activity assay (0.1–1000 µM), IC50; type: cell-based; conditions: Human mastadenovirus C; Table S4, range 0.1-1000 µM, AdV5; read-out: IC50 (M) AdV5
Summary of the method: (§1)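 Confluent cell monolayers were infected (AdV5 and EMCV MOI 0.005, HPIV-3 MOI 0.01, 1-h adsorption; HCMV 20 PFU/well, 2-h adsorption), then incubated at 37 °C with compounds (0.1–1000 µM) in 2% FBS MEM until CPE appeared. Infection was read by MTT or, for HCMV, plaque counting. IC50 was the concentration halving plaques versus untreated infected controls.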

[4] = test system: Encephalomyocarditis virus (EMCV); test: Antiviral activity assay (0.1–1000 µM), IC50; type: cell-based; conditions: Cardiovirus A, Table S4, range 0.1-1000 µM, read-out: IC50 (M) EMCV
Summary of the method: as §1

[5] = test system: Human parainfluenza virus type 3 (HPIV-3); test: Antiviral activity assay (0.1–1000 µM), IC50; type: cell-based; conditions: Human respirovirus 3, Table S4, range 0.1-1000 µM, HPIV-3; read-out: IC50 (M) HPIV-3
Summary of the method: as §1

Cc1c(C)n(Cc2ccccc2)c(=S)n1Cc1ccccc1 [Compound 10a]
viability at 48 h, 10 µM [1]: 93.8% | CC50 at 48 h [2]: 46 ± 6.93 µM | IC50 [3]: > 1.69e-05 M | IC50 [4]: > 4.6e-05 M | IC50 [5]: > 1.62e-05 M
